Values quoted from earlier work as cited in US6344218B1, “Skin deodorizing and santizing compositions” (The Procter & Gamble Company, priority 1998, dated 2002).
Structures can show the parent of a compound that is named as a salt.

solubility in water | Structure (SMILES)
about 2.67% | OCCOc1ccccc1 [2-phenoxyethanol]
about 2% | OCCc1ccccc1 [2-phenylethanol]
about 0.46% | O=[N+]([O-])C1(Br)COCOC1 [Bronidox L, 5-bromo-5-nitro-1,3-dioxane]
about 25% | O=[N+]([O-])C(Br)(CO)CO [Bronopol, 2-bromo-2-nitropropane-1,3-diol]
more than 50% | CC1(C)C(=O)N(CO)C(=O)N1CO [DMDM hydantoin, 1,3-bis(hydroxymethyl)-5,5-dimethyl-2,4-imidazolidinedione]
about 4% | OCc1ccccc1 [benzyl alcohol]
about 0.8% | CC(C)(O)C(Cl)(Cl)Cl [chlorobutanol, 1,1,1-Trichloro-2-methylpropan-2-ol]
about 1.8% | [H]/N=C(\N/C(=N/[H])NCCCCCCNC(=N)NC(=N)Nc1ccc(Cl)cc1)Nc1ccc(Cl)cc1 [diacetate salt, 1,1′-hexamethylene bis(5-(p-chlorophenyl)biguanide), reference compound]
about 70% | [H]/N=C(\N/C(=N/[H])NCCCCCCNC(=N)NC(=N)Nc1ccc(Cl)cc1)Nc1ccc(Cl)cc1 [digluconate salt, 1,1′-hexamethylene bis(5-(p-chlorophenyl)biguanide), reference compound]

Structure (SMILES) | solubility in water
ClC=CC[N+]12CN3CN(CN(C3)C1)C2.[Cl-] [Dowicil 200, 1-(3-Chlorallyl)-3,5,7-triaza-1-azoniaadamantane chloride] | freely soluble in water
[Na+].[O-][n+]1ccccc1[S-] [sodium pyrithione] | about 50%
